In US12410124B2 (priority 2019, dated 2025):
Read-outs that look alike come from different tables or passages of the source.

How the values were obtained:
primary glial cells = test: Inhibition of the NO release of primary glial cells induced by LPS; assay type: cell-based, rat; conditions: for inhibition at 5 µM / inhibition at 10 µM / inhibition at 20 µM / inhibition at 2 µM: Rattus norvegicus, Glial cell, read-out: NO inhibition (%)
Description: Lipopolysaccharide (LPS) is a main component of the cell wall of Gram-negative bacteria. It is a potent inflammatory factor that can directly activate gliocytes, and the activated gliocytes secrete a large amount of inflammation mediators such as tumor necrosis factor, interleukin, and nitric oxide, thus causing inflammatory reactions and oxidative stress reactions and eventually leading to neuronal denaturation and death. In recent years, the targeted injection of LPS into rat substantia nigra or striatum to induce neuroinflammation can successfully establish PD models, which can simulate most of the clinical manifestations and pathological features of PD, and are used for the study on the neuroinflammation mechanism associated with PD. LPS-induced primary glial cell PD inflammation model is suitable for the preliminary anti-neuroinflammation screening for neuroprotective agents. LPS is used to directly activate primary glial cells to simulate the pathogenesis mechanism of neuroinflammation, and the inhibitory activity of the target compounds on the inflammatory response of primary glial cells can be investigated.
The materials were taken from the brain tissue of fetal rat, for primary glial cell culture. At 7 to 10 days of the culture, LPS was added for the activation of nitric oxide (NO) release in glial cells. When a target compound was added, the reduction value for NO content in the cell culture medium was measured, to evaluate the anti-neuroinflammation activity of the compound. The experiment included blank control group, LPS model group, positive control group (caffeic acid phenethyl ester, CAPE), prototype control group (styryl sulfone compounds 3B, 3C, 3D, and 3G, the structures of which compounds are shown as above), and target compound group.

substantia nigra TH = test: Substantia nigra TH expression in MPTP Parkinson's disease model mouse (immunofluorescence); assay type: in vivo; conditions: percentage of mean intensity of blank control group, gavage 21 days after MPTP modeling
Procedure: (§1) Neurotoxins can be used to establish PD animal models. Currently, 1-methyl-4-phenyl-1,2,3,6-tetrahydropyridine (MPTP) is the sole synthetic toxin which is recognized to induce PD symptoms in human and non-human primates and in mice. Using MPTP subacute modeling method, C57BL/6J male mice were intraperitoneally injected with MPTP 30 mg/kg, once a day for 5 consecutive days. The experiment animals were divided into blank control group, MPTP model group, and compound treatment group. For the […] compound treatment group, the compound was administrated by gavage for 21 consecutive days after the completion of modeling; for the MPTP model group, the normal saline was administrated by gavage for 21 consecutive days after the completion of modeling; and for the blank control group, the normal saline was first intraperitoneally injected for 5 days, and then administrated by gavage for 21 days.
The main cause of PD lies in the pathological changes in the substantia nigra-striatum projection system of the brain and the progressive degeneration and loss of dopaminergic neurons. Tyrosine hydroxylase (TH) is the first enzyme in the biosynthesis of catecholamine neurotransmitters, as well as the first rate-limiting enzyme in the dopamine synthesis. It plays an important role in the synthesis and metabolism of the neurotransmitter DA. The TH in PD animal models and patients has a wide range of abnormal changes, from the gene expression to the enzyme protein content and enzyme activity. The detection of the TH expression in the midbrain and substantia nigra of PD model mice can be used to evaluate the neuroprotective activity of the compound.
(§2) Half of experiment mice in each group were taken to separate the midbrain after perfusion and fixation. The tissue was trimmed, and the substantia nigra-striatum area was taken to prepare paraffin sections. The TH immunofluorescence staining was performed in the brain sections of mice in each group. […] The experiment included blank control group, MPTP model group, positive control group (caffeic acid phenethyl ester, CAPE), prototype control group (styryl sulfone compounds 3B, 3C, 3D, and 3G, whose structures are shown as above), and target compound group.

midbrain pp38 = test: Midbrain pp38 protein expression in MPTP Parkinson's disease model mouse (western-blotting); assay type: in vivo; conditions: midbrain total protein, GAPDH internal reference, gavage 21 days after MPTP modeling
Procedure: as §1
The p38 mitogen-activated protein kinase (p38 MAPK) is expressed in both neurons and glial cells, and is the intersection point of neuron-glial cell network information regulations. The activation of p38 signaling pathway is an important initiator of neuronal degeneration, which continuously induces the apoptosis of dopaminergic neurons in multiple ways. It has become a research hotspot for the treatment of PD. Studies have shown that the protective mechanism of CAPE against the death of primary cultured cerebellar granule neurons induced by glutamate lies in inhibiting the activation of p38 phosphorylation and in turn inhibiting the activation of the caspase 3 apoptotic pathway to prevent neuronal apoptosis. Therefore, the MPTP-induced PD mouse model can be used to investigate the inhibitory effect of the target compounds on the activation of p38 phosphorylation on the overall animal level.
Half of experiment mice in each group were taken to extract the total midbrain protein, and the change in the midbrain phosphorylated p38 protein expression was determined by western-blotting using GAPDH as the internal reference. The experiment included blank control group, MPTP model group, positive control group (caffeic acid phenethyl ester, CAPE), prototype control group (styryl sulfone compounds 3B, 3C, 3D, and 3G, whose structures are shown as above), and target compound group.

substantia nigra p-α-s = test: Substantia nigra p-α-s protein expression in MPTP Parkinson's disease model mouse (immunofluorescence); assay type: in vivo; conditions: percentage of mean intensity of blank control group, gavage 21 days after MPTP modeling
Procedure: as §1
Alpha-synuclein is an “unfolded protein” in its natural state. It exists in a monomeric form, and participates in the physiological functions such as the release of neurotransmitters, the establishment of synaptic junctions, and the regulation of synaptic plasticity. Under pathological conditions, more than 90% of alpha-synuclein is phosphorylated at serine of position 129 and converted into phosphorylated alpha-synuclein (p-α-s), thereby forming Lewy bodies. The formation of Lewy bodies is one of the main pathological manifestations and pathological mechanisms for Parkinson's disease, and plays an important role in the formation and development of PD. The detection of the p-α-s expression in the midbrain and substantia nigra of PD model mice can evaluate the neuroprotective activity of the compound.
as §2, with “p-α-s” for “TH”

[1] = target: acetylcholinesterase (AchE) (Homo sapiens, UniProt P22303); test: biochemical
Sequence of acetylcholinesterase (AchE) (P22303 32-614, species assumed): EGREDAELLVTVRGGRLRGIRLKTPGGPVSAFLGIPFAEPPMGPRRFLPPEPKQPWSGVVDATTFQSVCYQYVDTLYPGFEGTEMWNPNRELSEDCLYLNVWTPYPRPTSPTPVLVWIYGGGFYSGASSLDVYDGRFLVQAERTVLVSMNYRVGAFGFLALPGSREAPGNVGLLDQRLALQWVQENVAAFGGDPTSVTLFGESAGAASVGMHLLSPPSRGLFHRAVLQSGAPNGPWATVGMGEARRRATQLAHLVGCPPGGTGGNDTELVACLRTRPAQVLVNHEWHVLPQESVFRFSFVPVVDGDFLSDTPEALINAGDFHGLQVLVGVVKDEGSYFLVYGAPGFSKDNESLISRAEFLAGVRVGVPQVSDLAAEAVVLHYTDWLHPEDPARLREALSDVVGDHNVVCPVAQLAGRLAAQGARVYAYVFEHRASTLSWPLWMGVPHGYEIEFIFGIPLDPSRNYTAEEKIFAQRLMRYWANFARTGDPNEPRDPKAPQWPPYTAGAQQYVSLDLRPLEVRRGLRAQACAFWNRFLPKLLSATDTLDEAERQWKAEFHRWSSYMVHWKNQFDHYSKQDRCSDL
Procedure: The modified Ellman method was used to determine the inhibitory activity on acetylcholinesterase. The principle lies in that acetylthiocholine iodide is decomposed under the action of acetylcholinesterase (AchE) to generate thiocholine. The thiocholine is quickly reacted with DTNB as the colour-developing agent to generate a yellow substance with light absorption at 405 nm. To a 96-well microplate, 50 μl of enzyme reaction buffer, 125 μl of DTNB (3 mM), 25 μl of test sample or positive control drug, and 25 μl of AchE (0.2 U/ml) were successively added. After incubation at room temperature for 5 min, 25 μl of ATCI (15 mM) was added. After incubation at room temperature for 8 min, the absorbance value was determined at 405 nm with a microplate reader. A blank control group without enzyme (25 μl PBS instead of the sample to be tested) was also established.

[2] = acetylcholinesterase, modified Ellman method, read-out: IC50

Compound | NO inhibitory rate compared with the styryl sulfone prototype compounds (primary glial cells) | inhibition at 5 µM (primary glial cells; 5 μM) [%] | inhibition at 10 µM (primary glial cells; 10 μM) [%] | inhibition at 20 µM (primary glial cells) [%] | Expression (Immunofluorescence intensity %) (substantia nigra TH) [%] | Expression (pp38/GAPDH) (midbrain pp38) | Expression (Immunofluorescence intensity %) (substantia nigra p-α-s) [%] | IC50 [1, 2] [µM] | inhibition at 2 µM (primary glial cells; 2 μM) [%] | inhibition at 2 µM (primary glial cells) [%] | inhibition at 5 µM (primary glial cells) [%] | inhibition at 10 µM (primary glial cells) [%] | IC50 [1] [µM]
CCN(CC)C(=O)Oc1ccc(/C=C/S(=O)(=O)Cc2ccc(C(F)(F)F)cc2)cc1OC(=O)N(CC)CC [Compound B1-1, (E)-4-{2-[(4-trifluoromethylphenyl)mesyl]ethenyl}-1,2-phenylenebis(diethylcarbamate)] | equivalent or higher inhibitory rate | 21.6 ± 2.18 | 42.8 ± 3.56 | 97.7 ± 2.04 | 95.86 ± 4.43 | 0.37 ± 0.12 | 82.54 ± 9.34 | 13.3 ± 2.85 |  |  |  |  | 
CC(=O)Oc1ccc(/C=C/S(=O)(=O)Cc2c(F)c(F)c(F)c(F)c2F)cc1OC(=O)NC(=O)c1ccc([N+](=O)[O-])c(C)c1 [Compound D5-4, (E)-2-[N-(3-methyl-4-nitrobenzoyl)carbamoyloxy]-4-{2-[(perfluorophenyl)mesyl]ethenyl}phenyl acetate] |  |  | 80.7 ± 4.06 |  | 99.86 ± 6.27 | 0.61 ± 0.07 | 186.19 ± 11.02 | 20.8 ± 3.12 | 24.3 ± 2.82 |  |  |  | 
CC(C)(C)c1ccc(CS(=O)(=O)/C=C/c2ccc(O)c(O)c2)cc1 [Compound 3G, (E)-4-{2-[(4-t-butylphenyl)mesyl]ethenyl}benzene-1,2-diol, reference compound] |  | 41.2 ± 3.01 | 59.6 ± 2.44 | 85.8 ± 3.88 | 76.08 ± 7.08 | 0.69 ± 0.22 | 203.66 ± 8.37 | > 100 |  |  |  |  | 
CCN(CC)C(=O)Oc1ccc(/C=C/S(=O)(=O)Cc2ccc(Cl)cc2)cc1OC(=O)N(CC)CC [Compound D1-1, (E)-4-{2-[(4-chlorophenyl)mesyl]ethenyl}-1,2-phenylenebis(diethylcarbamate)] | equivalent or higher inhibitory rate | 61.4 ± 2.77 | 84.5 ± 7.56 |  | 99.19 ± 3.67 | 0.50 ± 0.13 | 42.52 ± 5.43 | 4.16 ± 1.07 | 24.8 ± 4.08 |  |  |  | 
CN(C)c1ccc(CC(=O)Oc2cc(/C=C/S(=O)(=O)C(Br)c3ccc(Cc4ccc(N(C)C)cc4)cc3)ccc2OC(=O)N2CCCC2C(F)(F)F)cc1 (stereo not drawn) [Compound M1-5] |  | 21.2 ± 3.12 | 45.6 ± 4.28 | 66.7 ± 4.02 | 87.24 ± 2.97 | 0.29 ± 0.06 | 67.90 ± 3.29 | 31.3 ± 4.63 |  |  |  |  | 
CC(Br)C(Br)COc1cc(/C=C/S(=O)(=O)CCc2ccc(OCC(F)(F)F)cc2)ccc1OC(=O)Nc1ccsc1 (stereo not drawn) [Compound K1-3, (E)-2-(2,3-dibromobutoxy)-4-{2-[4-(2,2,2-trifluoroethoxy)phenylethylsulfonyl]ethenyl}phenyl-N-(thien-3-yl)carbamate] |  | 33.3 ± 6.71 | 54.2 ± 4.06 | 81.4 ± 4.29 | 87.28 ± 4.11 | 0.35 ± 0.06 | 90.04 ± 7.43 | 22.3 ± 3.17 |  |  |  |  | 
Cc1ccc(N2CCN(C(=O)Oc3ccc(/C=C/S(=O)(=O)CCCC(c4ccc(OC(=O)CN(C)C)cc4)N(C)C)cc3OC(=O)N(C)c3ccccc3)CC2)cc1 (stereo not drawn) [Compound P1-1, (E)-4-{2-[4-(dimethylamino)-4-(4-(N,N-dimethylglycyloxy)phenyl)butylsulfonyl]ethenyl}-2-(N-methyl-N-phenylcarbamoyloxy)phenyl-4-(p-methylphenyl)piperazine-1-carboxylate] |  |  |  |  | 88.13 ± 3.43 | 0.50 ± 0.09 | 182.99 ± 12.70 |  |  | 25.9 ± 3.54 | 40 ± 2.66 | 78.4 ± 3.96 | 11.3 ± 1.48
O=C(NC(=O)C(F)(F)F)Oc1ccc(/C=C/S(=O)(=O)C(F)(F)c2ccc(Oc3ccccn3)cc2)cc1OC(=O)C(F)(F)C(F)(F)F [Compound L1-4, (E)-5-{2-[(4-[pyridin-2-yl-oxy]phenyl)difluoromethylsulfonyl]ethenyl}-2-[N-(2,2,2-trifluoroacetyl)carbamoyloxy]phenyl-2,2,3,3,3-pentafluoropropionate] |  | 50.9 ± 3.72 | 72.3 ± 4.8 |  | 83.22 ± 5.98 | 0.28 ± 0.04 | 58.37 ± 6.11 | 9.48 ± 1.34 | 26.7 ± 6.93 |  |  |  | 
